{
  "source": "patent US20120053235A1",
  "about": "“Dihydromyricetin as an IKK-beta inhibitor used for treatment of arthritis, cancer and autoimmune conditions, and other diseases or disorders” (HONG KONG BAPTIST UNIVERSITY, priority 2010, published 2012)",
  "key": {"[1]": {"system": "isolated human T lymphocytes", "assay": "T cells proliferation assay (BrdU ELISA)", "assay_type": "cell-based", "conditions": "stimulated with anti-OKT 3/anti-CD28 or PMA/ionomycin, 72 hours; FIGS. 2A and 2B", "experimental": "The isolated human T lymphocytes (1×10^5 cells/well) were stimulated with anti-OKT 3/anti-CD28 antibodies or PMA/ionomycin (P/I) in the presence or absence of DMY for 72 hours.\n5-bromo-2′-deoxy-uridine (BrdU, Roche) was added to the cells at the 14th hour before the end of stimulation and it could be incorporated into the DNA of the growing cells during the labeling period. The amount of BrdU incorporated into DNA was quantified as an indicator of cell proliferation. BrdU was determined by ELISA according to manufacturer's instructions."}, "[2]": {"system": "ICR mice", "conditions": "mouse, in vivo", "experimental": "ICR (Imprinting Control Region) mice (both male and female) were purchased from the Laboratory Animal Services Center, the Chinese University of Hong Kong, Hong Kong. At the beginning of the study, one mouse was given orally with DMY at a dose of 2,000 mg/kg of mouse after fasting for 12 hours. The mouse had free access to water and after 2 hours, it was supplied with chow diet. Signs of toxicosis, onset of signs, and time to death of the mouse were monitored and recorded. Results of the initial exposure were used to select the subsequent dose of DMY, using the up-and-down method to estimate the lethal dose. […] If all the mice stayed alive, a higher dose of DMY was given to another three mice. All the mice were monitored continuously for two hours, every half hour for the next 5 hours, and at least every 10 hours until the 72nd hour of the study. Mice that died were immediately undergone autopsy. Mice remaining alive for 14 days upon study were sacrificed with an overdose pentobarbital."}, "[3]": {"system": "collagen II induced arthritis in female Wistar rats", "assay": "Collagen II induced arthritis (CIA)", "assay_type": "in vivo", "experimental": "Collagen II solution (collagen, 2 mg/ml in 0.05M acetic acid, Chondrex 20022, Redmond, Wash., USA) was emulsified with an equal volume of incomplete Freund's adjuvant (IFA, Chondrex 7002, Redmond, Wash., USA) at 4° C. using a high-speed homogenizer. In the experiment of CIA, DMY was encapsulated with HP-CD (1:8.48) and then dissolved in the normal saline with drug concentrations of 50 and 100 mg/kg body weight. Rats were intradermally injected at the base of the tail with 100 μl collagen/incomplete Freund's adjuvant (IFA) emulsion containing […] of collagen II by the use of a glass syringe equipped with a locking hub and a 27-G needle. On day 7 after the primary immunization, all the rats were given a booster injection of 100 μg of collagen II in IFA. On the day after the onset of arthritis (day 13), the CIA rats were exposed to a daily intraperitoneal administration of DMY (50 and 100 mg/kg) until day 30 of the study. DEX (0.1 mg/kg, one per day), MTX (3.75 mg/kg, twice per week), and indomethacin (1 mg/kg, one per day) were used as positive reference drugs. The rats were inspected daily from the onset of arthritis characterized by edema and/or erythema in the paws. The incidence and severity of arthritis were evaluated using an arthritic scoring system, and bi-hind paw volumes and body weight were measured every 2 days started on the day when the arthritic signs were firstly visible (day 13). In the arthritic scoring system, lesions (i.e., the clinical arthritic signs) of the four paws of each rat were graded from 0 to 4 according to the extent of both edema and erythema of the periarticular tissues. As such, 16 was the potential maximum of the combined arthritic scores per animal. The hind paw volumes were measured using a plethysmometer chamber (7140 UGO. Basile, Comerio, Italy) and expressed as the mean volume change of both hind paws of the rats. Body weight of the rats was monitored with a 0.1 g precision balance (Sartorius AG, Goettingen, Germany). On day 30, all rats were sacrificed with liver, spleen and thymus being collected and weighted. The organ index for a specific organ is equal to the ratio of the weight of that organ to a body weight of 100 g."}, "[4]": {"system": "c-Jun nuclear translocation in human T lymphocytes", "assay": "c-Jun nuclear translocation assay (Western blot)", "assay_type": "cell-based", "conditions": "pretreated 1 hour, PMA plus ionomycin 120 minutes", "experimental": "For c-Jun and c-Fos nuclear translocation assays, the human T lymphocytes (6×10^6/well) were pretreated with DMY for 1 hour, and then stimulated with 20 ng/ml PMA plus […] ionomycin for 120 minutes. After the cells were harvested and washed with PBS twice, the nuclear proteins of cells were then prepared using NucBuster™ Reagents. Afterwards, the washed cells were re-suspended using 60 μl NucBuster™ Reagent 1 per 30 μl of packed cells and processed twice by vortexing for 15 seconds, and followed by the incubation on ice for 5 minutes and second vortexing for 15 seconds, and finally centrifuged at 16000 g for 5 minutes. The supernatants containing cytoplasmic proteins were discarded; the cell pellets were re-suspended in 45 μl of NucBuster Extraction Reagent 2. The same vortexing, icing, and repeated vortexing steps were repeated once to prepare the nuclear proteins of the cells.\nProtein concentrations were determined by using Bio-Rad Protein assay. Equal amounts of nuclear proteins or whole-cell lysates were analyzed by 10% SDS-PAGE. After electrophoresis, the proteins were electro-transferred to the nitrocellulose membranes. […]"}, "[5]": {"system": "NF-κB nuclear translocation in human T lymphocytes", "assay": "NF-κB nuclear translocation (p65 Western blot of nuclear proteins)", "assay_type": "cell-based", "conditions": "pretreated 1 hour, 20 ng/ml PMA plus 1 μM ionomycin 120 minutes; FIG. 6A", "experimental": "Human T lymphocytes (6×10^6/well) were pretreated with DMY for 1 hour, and subsequently stimulated with 20 ng/ml PMA plus 1 μM ionomycin for 120 minutes. The cells were then harvested and washed with PBS twice. The nuclear proteins of cells were prepared by using NucBuster™ Reagents (Novagen, USA). The washed cells were re-suspended using 60 μl NucBuster™ Reagent for […] of packed cells and processed twice by vortexing for 15 seconds, and followed by incubation on ice for 5 minutes and second vortexing for 15 seconds, and finally centrifuged at 16000 g for 5 minutes. The supernatants containing cytoplasmic protein were harvested, and then the cell pellets were re-suspended in 45 μl of NucBuster Extraction Reagent 2. The same vortexing, icing, and repeated vortexing procedures were repeated once to prepare the nuclear proteins of the cells.\nProtein concentrations were determined by using Bio-Rad Protein assay. Equal amounts of nuclear proteins or whole-cell lysates were analyzed by 10% SDS-PAGE. After electrophoresis, the proteins were electro-transferred to the nitrocellulose membranes. After proteins were transferred, the membranes were blocked by 5% dried milk for 60 minutes and then washed three times for 5 min in each washing interval with Tris Buffered Saline with Tween 20 (TBS-T). […]"}, "[6]": {"conditions": "CIA rats, daily intraperitoneal 50 and 100 mg/kg, day 13 to day 30, vs vehicle-treated, FIGS. 10A and B"}},
  "data": [
    {"smiles": "O=C1c2c(O)cc(O)cc2O[C@H](c2cc(O)c(O)c(O)c2)[C@H]1O", "note": "[DMY, dihydromyricetin]", "values": [
      {"measurement": "T cell proliferation", "setting": "[1]", "value": "block T cell proliferation"},
      {"measurement": "acute oral LD50", "setting": "[2]", "value": "greater than 5,000 mg/kg body weight"},
      {"measurement": "ameliorative effect compared with MTX", "setting": "[3]; CIA rats, DMY 100 mg/kg, MTX 3.75 mg/kg twice per week", "value": "better than that of MTX"},
      {"measurement": "arthritic scores", "setting": "[3]; [6]", "value": "significantly reduced"},
      {"measurement": "hind paw volume", "setting": "[3]; [6]", "value": "significantly reduced"},
      {"measurement": "organ indexes of spleen and/or thymus", "setting": "[3]; rat, in vivo", "value": "no adverse effect"},
      {"measurement": "nuclear translocation of c-Jun", "setting": "[4]", "value": "suppress nuclear translocation"},
      {"measurement": "NF-κB nuclear translocation", "setting": "[5]", "value": "significantly suppressed"}
    ]}
  ]
}
